Assay results published in the NIST ThermoML archive (doi:10.1016/j.tca.2016.03.026).
± gives the expanded uncertainty stated by the source.

Legend:
[1] = xn = mol fraction of the nth substance listed; conditions: 100 kPa, Liquid; for speed of sound: Frequency=3 MHz, Sing-around technique in a fixed-path interferometer; for mass density: Vibrating tube method
[2] = refractive index (Na D-line) (dimensionless); xn = mol fraction of the nth substance listed; conditions: 100 kPa, Liquid, Standard Abbe refractometry

CCCCCCCC[n+]1ccn(C)c1.F[B-](F)(F)F [1-methyl-3-octylimidazolium tetrafluoroborate] + CC(C)(C)O
Conditions	mass density, 298.15 K [kg/m3]	mass density, 308.15 K [kg/m3]	mass density, 318.15 K [kg/m3]	refractive index, 298.15 K	refractive index, 308.15 K	refractive index, 318.15 K	speed of sound, 298.15 K [m/s]	speed of sound, 308.15 K [m/s]	speed of sound, 318.15 K [m/s]
[1], x1 = 0.1017	858.69 ± 1.7	849.64 ± 1.7	840.32 ± 1.7	–	–	–	1188.3 ± 1.4	1157.2 ± 1.4	1119.1 ± 1.4
[1], x1 = 0.1988	914.56 ± 1.9	906 ± 1.8	897.39 ± 1.8	–	–	–	1254.2 ± 1.5	1221.6 ± 1.5	1190.2 ± 1.5
[1], x1 = 0.3011	959.49 ± 1.9	951.41 ± 1.9	943.34 ± 1.9	–	–	–	1309.4 ± 1.6	1275.6 ± 1.6	1246.5 ± 1.6
[1], x1 = 0.4052	994.81 ± 2	987.25 ± 2	979.38 ± 2	–	–	–	1351.5 ± 1.7	1322.2 ± 1.7	1293.3 ± 1.7
[1], x1 = 0.5002	1020.68 ± 2.1	1013.4 ± 2.1	1005.9 ± 2	–	–	–	1382.5 ± 1.8	1353.6 ± 1.8	1324.9 ± 1.8
[1], x1 = 0.604	1044.05 ± 2.1	1037.31 ± 2.1	1029.92 ± 2.1	–	–	–	1410.1 ± 1.9	1383.3 ± 1.9	1354.5 ± 1.9
[1], x1 = 0.7024	1062.66 ± 2.2	1056.01 ± 2.2	1049.1 ± 2.2	–	–	–	1433.4 ± 2	1409 ± 2	1380.2 ± 2
[1], x1 = 0.7992	1078.39 ± 2.3	1071.8 ± 2.3	1064.98 ± 2.3	–	–	–	1451.3 ± 2.1	1428.2 ± 2.1	1402.2 ± 2.1
[1], x1 = 0.9014	1092.82 ± 2.4	1086.23 ± 2.4	1079.48 ± 2.3	–	–	–	1467.6 ± 2.2	1443.3 ± 2.2	1417.2 ± 2.2
[1], x1 = 1	1105.02 ± 1.1	1098.32 ± 1	1091.54 ± 1	–	–	–	1485.1 ± 2.3	1458.5 ± 2.3	1433.2 ± 2.3
[2], x1 = 0.1017	–	–	–	1.40022 ± 0.0016	1.39681 ± 0.0016	1.39317 ± 0.0016	–	–	–
[2], x1 = 0.1988	–	–	–	1.40992 ± 0.0016	1.40684 ± 0.0016	1.40405 ± 0.0016	–	–	–
[2], x1 = 0.3011	–	–	–	1.41591 ± 0.0016	1.41342 ± 0.0016	1.41058 ± 0.0016	–	–	–
[2], x1 = 0.4052	–	–	–	1.41962 ± 0.0016	1.41719 ± 0.0016	1.41452 ± 0.0016	–	–	–
[2], x1 = 0.5002	–	–	–	1.42177 ± 0.0016	1.41911 ± 0.0016	1.41635 ± 0.0016	–	–	–
[2], x1 = 0.604	–	–	–	1.42411 ± 0.0016	1.42168 ± 0.0016	1.41871 ± 0.0016	–	–	–
[2], x1 = 0.7024	–	–	–	1.42628 ± 0.0017	1.42348 ± 0.0017	1.42104 ± 0.0017	–	–	–
[2], x1 = 0.7992	–	–	–	1.42805 ± 0.0017	1.42562 ± 0.0017	1.42272 ± 0.0017	–	–	–
[2], x1 = 0.9014	–	–	–	1.43025 ± 0.0017	1.42769 ± 0.0017	1.42513 ± 0.0017	–	–	–
[2], x1 = 1	–	–	–	1.43253 ± 0.0017	1.42984 ± 0.0017	1.42715 ± 0.0017	–	–	–
